Results reported in ChEMBL document CHEMBL5375967 (J Med Chem, 2023).
In brackets after ≈: the same amount, converted by molar mass. Activity calls are given as the source filed them. The calls are words filed in the database; no cut-off is given here.

Legend:
[1] = MRT in C57BL/6 mouse at 1 mg/kg, iv measured upto 24 hrs by LC-MS/MS analysis; assay type: ADME, organism-based; details: in vivo
[2] = MRT in dog at 1 mg/kg, iv measured upto 24 hrs by LC-MS/MS analysis; assay type: ADME, organism-based, Canis lupus familiaris; details: in vivo
[3] = Metabolic stability in dog hepatocyte assessed as intrinsic clearance; assay type: ADME, cell-based, Canis lupus familiaris; details: hepatocytes
[4] = Solubility of compound in FaSSIF at pH 6.8; assay type: physicochemical
[5] = Volume of distribution at steady state in dog at 1 mg/kg, iv measured upto 24 hrs by LC-MS/MS analysis; assay type: ADME, organism-based, Canis lupus familiaris; details: in vivo, read-out: Vdss
in vivo = details: Sprague-Dawley, rat, iv, 1 mg/kg
[6] = Oral bioavailability in C57BL/6 mouse at 3 mg/kg measured upto 24 hrs by LC-MS/MS analysis; assay type: ADME, organism-based; details: in vivo
[7] = Solubility of compound in SGF at pH […]; assay type: physicochemical
Mus musculus [8] = assay: Antiarthritic activity in KRN passive serum-induced arthritis C57BL/6 mouse model assessed as reduction in proteoglycan loss at 0.1 to 10 mg/kg, po bid measured on day 7 at 2 hrs after first dose and 14 hrs after second dose; assay type: functional, organism-based; details: dose 0.1-10 mg/kg, time 7.0 day
[9] = Inhibition of neutrophil influx in arachidonic acid-stimulated skin inflammation 129S2/SvPasCrl mouse model assessed as effect on MPO level in skin at 0.03 mg/kg, po pretreated with compound for 4 hrs followed by arachidonic acid stimulation and measured after 1 hr; assay type: functional; details: time 5 hrs
[10] = Half life in C57BL/6 mouse at 1 mg/kg, iv measured upto 24 hrs by LC-MS/MS analysis; assay type: ADME, organism-based; details: in vivo
[11] = Oral bioavailability in dog at 3 mg/kg measured upto 24 hrs by LC-MS/MS analysis; assay type: ADME, organism-based, Canis lupus familiaris; details: in vivo
[12] = molecular target: T1, Leukotriene A-4 hydrolase (Homo sapiens, UniProt P09960); assay: Inhibition of LTA4H in human whole blood assessed as ionophore-stimulated LTB4 release preincubated for 15 mins by competitive immunoassay; assay type: tissue-based
T1 sequence (P09960 whole entry): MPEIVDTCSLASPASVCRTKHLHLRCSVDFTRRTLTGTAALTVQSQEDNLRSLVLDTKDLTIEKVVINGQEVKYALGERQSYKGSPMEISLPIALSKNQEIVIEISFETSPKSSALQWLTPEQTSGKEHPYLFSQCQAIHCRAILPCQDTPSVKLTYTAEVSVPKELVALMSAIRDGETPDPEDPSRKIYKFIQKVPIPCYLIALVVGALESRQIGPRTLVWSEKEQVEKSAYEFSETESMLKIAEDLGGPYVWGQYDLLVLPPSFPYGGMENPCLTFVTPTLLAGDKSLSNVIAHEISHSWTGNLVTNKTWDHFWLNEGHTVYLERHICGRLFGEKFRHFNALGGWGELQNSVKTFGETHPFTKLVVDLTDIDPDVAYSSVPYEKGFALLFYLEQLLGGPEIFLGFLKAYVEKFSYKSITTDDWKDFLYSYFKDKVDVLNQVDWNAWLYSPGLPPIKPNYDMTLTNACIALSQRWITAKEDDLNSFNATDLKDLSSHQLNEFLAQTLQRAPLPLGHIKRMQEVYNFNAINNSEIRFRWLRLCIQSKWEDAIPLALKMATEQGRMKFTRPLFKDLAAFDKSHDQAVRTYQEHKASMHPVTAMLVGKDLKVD

in vitro [13] = details: mouse, liver microsomes
[14] = Solubility of compound in FeSSIF at pH 6.8; assay type: physicochemical
[15] = Volume of distribution at steady state in C57BL/6 mouse at 1 mg/kg, iv measured upto 24 hrs by LC-MS/MS analysis; assay type: ADME, organism-based; details: in vivo, read-out: Vdss
[16] = Cmax in Wistar rat at 3 mg/kg, po measured upto 24 hrs by LC-MS/MS analysis; assay type: ADME, organism-based; parameters: dose 3 mg/kg, time < 24 hrs, route po; details: in vivo
[17] = AUC (0 to infinity) in Wistar rat at 3 mg/kg, po measured upto 24 hrs by LC-MS/MS analysis; assay type: ADME, organism-based; parameters: time < 24 hrs, dose 3 mg/kg, route po; details: in vivo
[18] = Half life in dog at 1 mg/kg, iv measured upto 24 hrs by LC-MS/MS analysis; assay type: ADME, organism-based, Canis lupus familiaris; details: in vivo
[19] = Inhibition of arachidonic acid-stimulated LTB4 release in skin inflammation 129S2/SvPasCrl mouse model at 3 mg/kg, po pretreated with compound for 4 hrs followed by arachidonic acid stimulation and measured after 1 hr; assay type: functional; details: time 5 hrs
Mus musculus [20] = assay: Antiarthritic activity in KRN passive serum-induced arthritis C57BL/6 mouse model assessed as reduction in joint damage at 0.1 to 10 mg/kg, po bid measured on day 7 at 2 hrs after first dose and 14 hrs after second dose; assay type: functional, organism-based; details: dose 0.1-10 mg/kg, time 7.0 day
Mus musculus [21] = assay: Antiarthritic activity in KRN passive serum-induced arthritis C57BL/6 mouse model assessed as reduction in tissue destruction at 0.1 to 10 mg/kg, po bid measured on day 7 at 2 hrs after first dose and 14 hrs after second dose; assay type: functional, organism-based; details: dose 0.1-10 mg/kg, time 7.0 day
[22] = Metabolic stability in rat hepatocyte assessed as intrinsic clearance; assay type: ADME, cell-based; details: hepatocytes
physchem = details: buffer, pH 6.8
[23] = AUC (0 to infinity) in dog at 3 mg/kg, po measured upto 24 hrs by LC-MS/MS analysis; assay type: ADME, organism-based, Canis lupus familiaris; parameters: time < 24 hrs, dose 3 mg/kg, route po; details: in vivo
[24] = Metabolic stability in human hepatocyte assessed as intrinsic clearance; assay type: ADME, cell-based; details: hepatocytes
Mus musculus [25] = assay: Antiarthritic activity in KRN passive serum-induced arthritis C57BL/6 mouse model assessed as reduction in macrophage numbers at 0.1 to 10 mg/kg, po bid measured on day 7 at 2 hrs after first dose and 14 hrs after second dose; assay type: functional, organism-based; details: dose 0.1-10 mg/kg, time 7.0 day
in vitro [26] = details: dog, MDCK
[27] = Inhibition of arachidonic acid-stimulated LTB4 release in skin inflammation 129S2/SvPasCrl mouse model at 0.3 mg/kg, po pretreated with compound for 4 hrs followed by arachidonic acid stimulation and measured after 1 hr; assay type: functional
[28] = tested on: Leukotriene A4 hydrolase (Homo sapiens); assay: Inhibition of LTB4 in calcium ionophore A23187-stimulated human PBMC cells at 1 uM pretreated with compound for 15 mins followed by calcium ionophore A23187 induction and measured after 2 hrs by LC-MS/MS analysis; details: time 135.0 min
[29] = Inhibition of neutrophil influx in arachidonic acid-stimulated skin inflammation 129S2/SvPasCrl mouse model assessed as effect on MPO level in skin at 3 mg/kg, po pretreated with compound for 4 hrs followed by arachidonic acid stimulation and measured after 1 hr; assay type: functional; details: time 5 hrs
[30] = Inhibition of arachidonic acid-stimulated LTB4 release in skin inflammation 129S2/SvPasCrl mouse model at 0.03 mg/kg, po pretreated with compound for 4 hrs followed by arachidonic acid stimulation and measured after 1 hr; assay type: functional; details: time 5 hrs

N[C@H](CO)Cn1ccc(-c2ccc(Oc3ncc(-c4cc[nH]n4)cc3F)cc2)n1
MRT [1]: 3.3 h | MRT [2]: 28 h | CLH [3]: 6 µL/min/mg | solubility [4]: > 2000 µg/mL | Vd [5]: 7 L/kg | concentration at 24 h (in vivo): 32 nM | bioavailability [6]: 32% | solubility [7]: 27 µg/mL (≈ 68.5 µM) | Activity (Mus musculus [8]): Active | inhibition in vivo at 0.03 mg/kg [9]: 52% | half-life [10]: 3.4 h | bioavailability [11]: 39% | IC50 [12]: 47 nM | microsomal CLint (in vitro [13]): 90 µL/min/mg | solubility [14]: > 2000 µg/mL | Vd [15]: 1.6 L/kg | Cmax [16]: 351 nM | AUC(0-inf) [17]: 4.99 µM·h | half-life [18]: 40 h | inhibition in vivo at 3 mg/kg [19]: 97% | Activity (Mus musculus [20]): Active | Activity (Mus musculus [21]): Active | CLH [22]: 20 µL/min/mg | solubility (physchem): 180 µM (≈ 71 µg/mL) | AUC(0-inf) [23]: 15 µM·h | CLH [24]: < 4 µL/min/mg | Activity (Mus musculus [25]): Active | Papp A→B (in vitro [26]): 12 ×10⁻⁶ cm/s | inhibition in vivo at 0.3 mg/kg [27]: 93% | inhibition [28]: 100% | inhibition in vivo at 3 mg/kg [29]: 96% | inhibition in vivo at 0.03 mg/kg [30]: 74%
